Measured values: patent publication US4115385A, “Antibacterial 3-(5-tetrazolyl) penam compounds” (Pfizer Inc., priority 1977, dated 1978)

Experiments:
Staphylococcus aureus [1] = assay: In vivo protection of mice against systemic infection by Staphylococcus aureus; conditions: multiple dosing
Procedure: (§1) The antibacterial penam compounds of the instant invention are also active in vivo. In determining such activity, the test antibiotic is administered to infected mice, using a multiple dosing regimen. The severity of the infection varies from about one to about ten times that needed to kill 100% of the mice under the conditions of the test. At the end of the test, the activity of a compound is assessed by counting the number of survivors among the treated animals. Both the subcutaneous (SC) and the oral (PO) dosage routes are used. Results are given in Table I for two of the compounds of the invention. The ability of the compounds to protect mice against systemic infections caused by a lethal intraperitoneal inoculum of Staphylococcus aureus or of Escherichia coli is presented.

Streptococcus pyogenes = assay: In vitro minimum inhibitory concentration (MIC) vs. Strep. pyogenes; format: cell-based; conditions: Streptococcus pyogenes; Table II; two-fold serial dilution, Brain-Heart Infusion broth, overnight; read-out: MIC vs. Strep. pyogenes
How it was run: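 Broth inoculated with bacteria and test antibiotic, incubated overnight and read visually; MIC is the lowest concentration preventing turbidity. Test preparations also contain some of the corresponding tetrazole tautomer.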

Escherichia coli = assay: In vivo protection of mice against systemic infection by Escherichia coli; conditions: multiple dosing
Procedure: as §1

Staphylococcus aureus [2] = assay: In vitro minimum inhibitory concentration (MIC) vs. Staph. aureus; format: cell-based; conditions: Staphylococcus aureus; Table III; two-fold serial dilution, Brain-Heart Infusion broth, overnight; read-out: MIC vs. Staph. aureus
Procedure: The antibacterial penam compounds of the instant invention show activity against a wide variety of gram-positive and gram-negative bacteria. […] The broth is inoculated with the bacterial culture, and with the test antibiotic, and then it is incubated overnight. On the next day, the test is read visually. The minimum inhibitory concentration (MIC) is the lowest concentration of antibiotic which prevents turbidity, i.e., which prevents growth of the microorganism. In vitro activities of several of the penam compounds of the invention are presented later in this specification.
In Table II, the minimum inhibitory concentrations (MIC's) of compounds of formula I, wherein R^2 is hydrogen, against a strain of Streptococcus pyogenes, are reported; and in Table III, minimum inhibitory concentrations of compounds of formula I, wherein R^2 is hydrogen, against a strain of Staphylococcus aureus, are presented. Because of the tautomeric nature of such tetrazole derivatives, referred to hereinbefore,each of the preparations tested also contains some of the corresponding compound of formula II, wherein R^3 is hydrogen.

| Compound | Percentage Protection S. aureus (Staphylococcus aureus [1]; 6 mg./kg. SC) [%] | Percentage Protection S. aureus (Staphylococcus aureus [1]; 12 mg./kg. SC) [%] | Percentage Protection S. aureus (Staphylococcus aureus [1]; 25 mg./kg. SC) [%] | Percentage Protection S. aureus (Staphylococcus aureus [1]; 50 mg./kg. SC) [%] | MIC (Streptococcus pyogenes) [µg/mL] | Percentage Protection E. coli (Escherichia coli; 25 mg./kg. SC) [%] | Percentage Protection E. coli (Escherichia coli; 50 mg./kg. SC) [%] | Percentage Protection E. coli (Escherichia coli; 200 mg./kg. PO) [%] | MIC (Staphylococcus aureus [2]) [µg/mL] |
| --- | --- | --- | --- | --- | --- | --- | --- | --- | --- |
| CC1(C)S[C@@H]2[C@H](NC(=O)[C@H](N)c3ccc(O)cc3)C(=O)N2[C@H]1c1nnn[nH]1 [D-2-amino-2-(p-hydroxyphenyl)acetyl, 6-(D-2-Amino-2-[4-hydroxyphenyl]acetamido)-2,2-dimethyl-3-(5-tetrazolyl)penam] | 50 | 50 | 70 | 80 | < 0.1 | 80 | 100 | 100 | – |
| CC1(C)S[C@@H]2[C@H](NC(=O)[C@H](N)c3ccsc3)C(=O)N2[C@H]1c1nnn[nH]1 [D-2-amino-2-(3-thienyl)acetyl, 6-(D-2-Amino-2-[3-thienyl]acetamido)-2,2-dimethyl-3-(5-tetrazolyl)penam] | 50 | 50 | 60 | 40 | – | 20 | 20 | 0 | < 0.1 |
